# Counter-ions that a name gives are not always drawn.
# Test system: NLRP3 inflammasome
# Assay: IL-1β secretion assay (LPS-primed, nigericin-activated THP-1 cells, MSD readout)
# Type: cell-based
# Conditions: Homo sapiens, LPS-primed, read-out: IL1b IC50
# Procedure: Monocytic THP-1 cells (DSMZ) were maintained in RPMI media (RPMI 1640 Medium (1×) +10% FBS, Eurobio CVFSVFOO—OU). Cells were then plated at 16,000 cells per well in 96-well round bottom cell culture plates (TPP, ref 92097) and maintained with RPMI and 0.1% Bovine Serum Albumin solution. Activation of the NLRP3 inflammasome requires both an NF-kB-dependent priming step and the addition of a NLRP3 activator. The priming step was induced by LPS (10 ng/mL, Sigma, ref:L4391) for 3 h at 37° C., then compound, in a 1:3.10 serial dilution series in DMSO 1:100, and the activator nigericin (Sigma Aldrich, ref: SML1779) 10 μM (final concentration) were added to the cells and co-incubated for 2 h. 50 μL supernatant was removed, and IL-1β levels were monitored using an MSD assay (Electro Chemical Luminescence Immunoassay (ECLI) according to manufacturers' instructions.
# IC50 values were calculated from the plot of percentage of inhibition versus the inhibitor concentration by a logistics fit according to: y=A2+(A1−A2)/(1+(x/IC50)^p) where y is the %-inhibition at the inhibitor concentration, x. A1 is the lowest inhibition value, i.e., 0%, and A2 the maximum inhibition value, i.e., 100%. The exponent, p, is the Hill coefficient. The curve fitting was conducted with an internally developed software.
row,Compound,IC50
1,"CC(C)c1nn(CC(=O)NC2CN3CCC2CC3)c(=O)c2cc3ccsc3n12 (stereo not drawn) [Example 39, 2-(8-isopropyl-5-oxothieno[3′,2′:4,5]pyrrolo[1,2-d][1,2,4]triazin-6(5H)-yl)-N-(quinuclidin-3-yl)acetamide]",2230 nM

# Same assay, conditions: Homo sapiens, THP-1, LPS-primed, read-out: IL1b IC50
row,IC50,Compound
1,1010 nM,"CC(C)c1nn(CC(=O)NC2CCCN(C3CCC3(C)C)C2)c(=O)c2cc3ccsc3n12 (racemic) [Example 57, 2-(12-isopropyl-9-oxo-3-thia-1,10,11-triazatricyclo[6.4.0.02,6]dodeca-2(6),4,7,11-tetraen-10-yl)-N-[rac-(3R)-1-(2,2-dimethylcyclobutyl)-3-piperidyl]acetamide]"
2,> 10000 nM,"CC(C)c1nn(CC(=O)NC2CCN(C(C)(C)C)C2)c(=O)c2cc3ccsc3n12 (racemic) [Example 87, 2-(12-isopropyl-9-oxo-3-thia-1,10,11-triazatricyclo[6.4.0.02,6]dodeca-2(6),4,7,11-tetraen-10-yl)-N-[rac-(3R)-1-tert-butylpyrrolidin-3-yl]acetamide]"
3,4500 nM,"CC(C)c1nn(CC(=O)NC2C[C@@H]3C[C@H]2N(C)C3)c(=O)c2cc3ccsc3n12 (stereo in doubt) [Example 82, N-[(1R,4R)-2-methyl-2-azabicyclo[2.2.1]heptan-6-yl]-2-(8-isopropyl-5-oxothieno [3′,2′:4,5]pyrrolo[1,2-d][1,2,4]triazin-6(5H)-yl)acetamide]"
4,1790 nM,"CC(C)c1nn(CC(=O)Nc2cncs2)c(=O)c2cc3cc(Cl)sc3n12 [Example 7, 2-(2-chloro-8-isopropyl-5-oxothieno[3′,2′:4,5]pyrrolo[1,2-d][1,2,4]triazin-6(5H)-yl)-N-(thiazol-5-yl)acetamide]"
5,9560 nM,"Cc1cc2cc3c(=O)n(CC(=O)N[C@@H]4CCCN(C)C4)nc(C(C)C)n3c2s1 [Example 9, (R)-2-(8-isopropyl-2-methyl-5-oxothieno[3′,2′:4,5]pyrrolo[1,2-d][1,2,4]triazin-6(5H)-yl)-N-(1-methylpiperidin-3-yl)acetamide 2,2,2-trifluoroacetate]"
6,540 nM,"CC(C)c1nn(CC(=O)Nc2ccc3ncsc3c2)c(=O)c2cc3ccsc3n12 [Example 12, N-(benzo[d]thiazol-6-yl)-2-(8-isopropyl-5-oxothieno[3′,2′:4,5]pyrrolo[1,2-d][1,2,4]triazin-6(5H)-yl)acetamide]"
7,2740 nM,"CC(C)c1nn(CC(=O)Nc2ccc3scnc3c2)c(=O)c2cc3ccsc3n12 [Example 15, N-(benzo[d]thiazol-5-yl)-2-(8-isopropyl-5-oxothieno[3′,2′:4,5]pyrrolo[1,2-d][1,2,4]triazin-6(5H)-yl)acetamide]"
8,1520 nM,"COc1ccc(NC(=O)Cn2nc(C(C)C)n3c(cc4ccsc43)c2=O)cn1 [Example 16, 2-(8-isopropyl-5-oxothieno[3′,2′:4,5]pyrrolo[1,2-d][1,2,4]triazin-6(5H)-yl)-N-(6-methoxypyridin-3-yl)acetamide]"
9,768 nM,"CC(C)c1nn(C(C)C(=O)N[C@@H]2CCCN(C3CCC3)C2)c(=O)c2cc3ccsc3n12 (stereo partly drawn) [Example 25, N—((R)-1-cyclobutylpiperidin-3-yl)-2-(8-isopropyl-5-oxothieno[3′,2′:4,5]pyrrolo[1,2-d][1,2,4]triazin-6(5H)-yl)propanamide formate]"
10,1990 nM,"CC(C)c1nn(C(C)C(=O)N[C@@H]2CCCN(C3CC3)C2)c(=O)c2cc3ccsc3n12 (stereo partly drawn) [Example 26, N—((R)-1-cyclopropylpiperidin-3-yl)-2-(8-isopropyl-5-oxothieno[3′,2′:4,5]pyrrolo[1,2-d][1,2,4]triazin-6(5H)-yl)propanamide formate]"
11,1030 nM,"CC(C)c1nn(CC(=O)Nc2ccc3cnn(C)c3c2)c(=O)c2cc3ccsc3n12 [Example 27, 2-(8-isopropyl-5-oxothieno[3′,2′:4,5]pyrrolo[1,2-d][1,2,4]triazin-6(5H)-yl)-N-(1-methyl-1H-indazol-6-yl)acetamide formate]"
12,1140 nM,"COCc1nn(CC(=O)N[C@@H]2CCCN(C3CCC3)C2)c(=O)c2cc3cc(Cl)sc3n12 [Example 29, (R)-2-(2-chloro-8-(methoxymethyl)-5-oxothieno[3′,2′:4,5]pyrrolo[1,2-d][1,2,4]triazin-6(5H)-yl)-N-(1-cyclobutylpiperidin-3-yl)acetamide formate]"
13,1200 nM,"COCc1nn(CC(=O)N[C@@H]2CCCN(C3CC3)C2)c(=O)c2cc3cc(Cl)sc3n12 [Example 30, (R)-2-(2-chloro-8-(methoxymethyl)-5-oxothieno[3′,2′:4,5]pyrrolo[1,2-d][1,2,4]triazin-6(5H)-yl)-N-(1-cyclopropylpiperidin-3-yl)acetamide formate]"
14,3060 nM,"COCc1nn(CC(=O)N[C@@H]2CCCN(C3CCC3)C2)c(=O)c2cc3ccsc3n12 [Example 32, (R)—N-(1-cyclobutylpiperidin-3-yl)-2-(8-(methoxymethyl)-5-oxothieno [3′,2′:4,5]pyrrolo[1,2-d][1,2,4]triazin-6(5H)-yl)acetamide]"
15,2750 nM,"COCc1nn(CC(=O)N[C@@H]2CCCN(C3CC3)C2)c(=O)c2cc3ccsc3n12 [Example 33, (R)—N-(1-cyclopropylpiperidin-3-yl)-2-(8-(methoxymethyl)-5-oxothieno[3′,2′:4,5]pyrrolo[1,2-d][1,2,4]triazin-6(5H)-yl)acetamide 2,2,2-trifluoroacetate]"
16,6160 nM,"CC(C)c1nn(CC(=O)NC2CN(C)CC(F)(F)C2)c(=O)c2cc3cc(Cl)sc3n12 (stereo not drawn) [Example 34, 2-(2-chloro-8-isopropyl-5-oxothieno[3′,2′:4,5]pyrrolo[1,2-d][1,2,4]triazin-6(5H)-yl)-N-(5,5-difluoro-1-methylpiperidin-3-yl)acetamide 2,2,2-trifluoroacetate]"
17,45 nM,"CC(C)c1nn(CC(=O)NC2CCCN(C(C)(C)C)C2)c(=O)c2cc3ccsc3n12 (stereo not drawn) [Example 37, N-(1-(tert-butyl)piperidin-3-yl)-2-(8-isopropyl-5-oxothieno[3′,2′:4,5]pyrrolo[1,2-d][1,2,4]triazin-6(5H)-yl)acetamide formate]"
18,1300 nM,"CC(C)c1nn(CC(=O)NC2CCCN(CC(F)(F)F)C2)c(=O)c2cc3ccsc3n12 (stereo not drawn) [Example 38, 2-(8-isopropyl-5-oxothieno[3′,2′:4,5]pyrrolo[1,2-d][1,2,4]triazin-6(5H)-yl)-N-(1-(2,2,2-trifluoroethyl)piperidin-3-yl)acetamide 2,2,2-trifluoroacetate]"
19,259 nM,"CC(C)c1nn(CC(=O)N[C@@H]2CCCN(C3COC3)C2)c(=O)c2cc3ccsc3n12 [Example 40, (R)-2-(8-isopropyl-5-oxothieno[3′,2′:4,5]pyrrolo[1,2-d][1,2,4]triazin-6(5H)-yl)-N-(1-(oxetan-3-yl)piperidin-3-yl)acetamide]"
20,1150 nM,"CC(=O)N1CCC[C@@H](NC(=O)Cn2nc(C(C)C)n3c(cc4ccsc43)c2=O)C1 [Example 42, (R)—N-(1-acetylpiperidin-3-yl)-2-(8-isopropyl-5-oxothieno[3′,2′:4,5]pyrrolo[1,2-d][1,2,4]triazin-6(5H)-yl)acetamide]"
21,1530 nM,"CC(C)c1nn(CC(=O)N[C@@H]2CCCN(c3nccn3C)C2)c(=O)c2cc3ccsc3n12 [Example 45, (R)-2-(8-isopropyl-5-oxothieno[3′,2′:4,5]pyrrolo[1,2-d][1,2,4]triazin-6(5H)-yl)-N-(1-(1-methyl-1H-imidazol-2-yl)piperidin-3-yl)acetamide]"
22,8200 nM,"CC(C)c1nn(CC(=O)NC2CCN(C)C(=O)C2)c(=O)c2cc3ccsc3n12 (stereo not drawn) [Example 46, 2-(8-isopropyl-5-oxothieno[3′,2′:4,5]pyrrolo[1,2-d][1,2,4]triazin-6(5H)-yl)-N-(1-methyl-2-oxopiperidin-4-yl)acetamide]"
23,1030 nM,"CC(C)c1nn(CC(=O)NC2CCC(=O)N(C)C2)c(=O)c2cc3ccsc3n12 (stereo not drawn) [Example 47, 2-(8-isopropyl-5-oxothieno[3′,2′:4,5]pyrrolo[1,2-d][1,2,4]triazin-6(5H)-yl)-N-(1-methyl-6-oxopiperidin-3-yl)acetamide]"
24,58.9 nM,"CC(C)c1nn(CC(=O)N[C@@H]2CCCN(C(C)C)C2)c(=O)c2cc3ccsc3n12 [Example 48, 2-(12-isopropyl-9-oxo-3-thia-1,10,11-triazatricyclo[6.4.0.02,6]dodeca-2(6),4,7,11-tetraen-10-yl)-N-[(3R)-1-isopropyl-3-piperidyl]acetamide]"
25,27 nM,"CC(C)c1nn(CC(=O)N[C@@H]2CCCN(C3CCCC3)C2)c(=O)c2cc3ccsc3n12 [Example 49, N-[(3R)-1-cyclopentyl-3-piperidyl]-2-(12-isopropyl-9-oxo-3-thia-1,10,11-triazatricyclo [6.4.0.02,6]dodeca-2(6),4,7,11-tetraen-10-yl)acetamide]"

# Same assay, conditions: LPS-primed, read-out: IL1b IC50
row,IC50,Compound
1,278 nM,"CC(O)c1nn(CC(=O)N[C@@H]2CCCN(C3CC3)C2)c(=O)c2cc3ccsc3n12 (single isomer, unassigned) [Example 44]"
2,650 nM,"CC(O)c1nn(CC(=O)N[C@@H]2CCCN(C3CCC3)C2)c(=O)c2cc3ccsc3n12 (single isomer, unassigned) [Example 50]"
3,> 10000 nM,"CC(O)c1nn(CC(=O)N[C@@H]2CCCN(C3CC3)C2)c(=O)c2cc3ccsc3n12 (single isomer, unassigned) [Example 51]"
4,> 10000 nM,"CC(O)c1nn(CC(=O)N[C@@H]2CCCN(C3CCC3)C2)c(=O)c2cc3ccsc3n12 (single isomer, unassigned) [Example 81]"

# Source: patent US20250129091A1, “THIENOPYRROLOTRIAZINE COMPOUNDS, THEIR PREPARATION AND THEIR THERAPEUTIC USE” (Sanofi, priority 2022, published 2025)
